Results reported in US9273057B2 (Bristol-Myers Squibb Company, priority 2012, dated 2016).
Structures can show the parent of a compound that is named as a salt.

Molecular target: CK2A1 (CK2α/β) (Homo sapiens, UniProt P68400)
Test: CK2 kinase assay, CK2A1 (CK2α/β)
Assay type: biochemical
Conditions: Table A; read-out: CK2A1 (CK2α/β) (IC50)

Chain of CK2A1 (CK2α/β) (P68400 whole entry, species assumed): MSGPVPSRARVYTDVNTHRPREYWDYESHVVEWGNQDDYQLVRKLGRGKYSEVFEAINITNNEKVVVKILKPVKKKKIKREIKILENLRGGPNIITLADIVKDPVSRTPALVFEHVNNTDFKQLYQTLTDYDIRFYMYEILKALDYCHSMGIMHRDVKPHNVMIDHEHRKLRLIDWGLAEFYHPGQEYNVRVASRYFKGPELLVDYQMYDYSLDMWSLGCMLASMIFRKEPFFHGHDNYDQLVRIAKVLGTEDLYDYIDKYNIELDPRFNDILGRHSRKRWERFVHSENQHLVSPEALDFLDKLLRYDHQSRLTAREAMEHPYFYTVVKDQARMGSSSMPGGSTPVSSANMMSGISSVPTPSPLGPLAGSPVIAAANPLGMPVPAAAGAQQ
Chain of CK2A1 (CK2α/β) (P67870 whole entry partner, species assumed): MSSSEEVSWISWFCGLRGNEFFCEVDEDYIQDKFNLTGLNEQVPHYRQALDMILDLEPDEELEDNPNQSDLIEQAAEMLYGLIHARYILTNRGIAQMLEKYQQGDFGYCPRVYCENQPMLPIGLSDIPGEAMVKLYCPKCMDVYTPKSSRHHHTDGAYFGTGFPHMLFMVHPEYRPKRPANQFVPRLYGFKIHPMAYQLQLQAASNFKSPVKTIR

CN[C@@H]1CCN(c2cc(C#N)cc(Nc3nc(NC4CC4)c4ncc(C#N)n4n3)c2Cl)C[C@H]1O (racemic) [Example 186, (+/−)-2-((2-chloro-5-cyano-3-((3R,4R)-3-hydroxy-4-(methylamino)piperidin-1-yl)phenyl)amino)-4-(cyclopropylamino)imidazo[2,1-f][1,2,4]triazine-7-carbonitrile] showed an IC50 of 1.06 nM.

Work on CCNc1nc(Nc2cc(C#N)cc(N3CC[C@@H](NC(=O)OC)[C@@H](N(C)CC(C)(C)O)C3)c2Cl)nn2c(C#N)cnc12 [Example 771, methyl N-[(3S,4R)-1-(2-chloro-5-cyano-3-{[7-cyano-4-(ethylamino)imidazo[2,1-f][1,2,4]triazin-2-yl]amino}phenyl)-3-[(2-hydroxy-2-methylpropyl)(methyl)amino]piperidin-4-yl] carbamate] yielded an IC50 of 7 nM.

N#Cc1cc(Nc2nc(NC3CC3)c3ncc(C#N)n3n2)c(Cl)c(N2CCC3(CC2)CN(Cc2ccc[nH]c2=O)C3)c1 [Example 805, 2-((2-chloro-5-cyano-3-(2-((2-oxo-1,2-dihydropyridin-3-yl)methyl)-2,7-diazaspiro[3.5]nonan-7-yl)phenyl)amino)-4-(cyclopropylamino)imidazo[2,1-f][1,2,4]triazine-7-carbonitrile] showed an IC50 of 5.35 nM.

COC(=O)N[C@H]1CCN(C2CN(c3cc(C#N)cc(Nc4nc(NC5CC5)c5ncc(C#N)n5n4)c3Cl)C2)C[C@@H]1O (racemic) [Example 154, (+/−) methyl ((3S,4S)-1-(1-(2-chloro-5-cyano-3-((7-cyano-4-(cyclopropylamino)imidazo [2,1-f][1,2,4]triazin-2-yl)amino)phenyl)-3-azetidinyl)-3-hydroxy-4-piperidinyl)carbamate] showed an IC50 of 0.4 nM.

N#Cc1cc(Nc2nc(NC3CC3)c3ncc(C#N)n3n2)c(Cl)c(N2CCC(NC3CCOC3)CC2)c1 (racemic) [Example 112, (+/−) 2-((2-chloro-5-cyano-3-(4-(tetrahydro-3-furanylamino)-1-piperidinyl)phenyl)amino)-4-(cyclopropylamino)imidazo [2,1-f][1,2,4]triazine-7-carbonitrile] gave an IC50 of 2.56 nM.

With CCNc1nc(Nc2cc(C#N)cc(N3CC[C@H]4NC(=O)CO[C@@H]4C3)c2Cl)nn2c(C#N)cnc12 (racemic) [Example 370, (+/−)-2-((2-chloro-5-cyano-3-((4aR,8aR)-2-oxohexahydro-1H-pyrido[3,4-b][1,4]oxazin-6(7H)-yl)phenyl)amino)-4-(ethylamino)imidazo[2,1-f][1,2,4]triazine-7-carbonitrile] the IC50 was 0.35 nM.

Work on N#Cc1cc(CNCc2ccccn2)c(Cl)c(Nc2nc(NC3CC3)c3ncc(C#N)n3n2)c1 [Example 467, 2-[(2-chloro-5-cyano-3-{[(pyridin-2-ylmethyl)amino]methyl}phenyl)amino]-4-(cyclopropylamino)imidazo[2,1-f][1,2,4]triazine-7-carbonitrile] yielded an IC50 of 0.45 nM.

COC(=O)N[C@@H]1CN(c2cc(C#N)cc(Nc3nc(NC4CC4)c4ncc(C#N)n4n3)c2Cl)C[C@@H]1C (racemic) [Example 11, (+/−) methyl ((3S,4S)-1-(2-chloro-5-cyano-3-((7-cyano-4-(cyclopropylamino)imidazo [2,1-f][1,2,4]triazin-2-yl)amino)phenyl)-4-methyl-3-pyrrolidinyl)carbamate] was tested, and the IC50 was 0.68 nM.

Compound COC(=O)N1CCC(c2cc(C#N)cc(Nc3nc(NC4CC4)c4ncc(C#N)n4n3)c2Cl)CC1 [Example 226, methyl 4-(2-chloro-5-cyano-3-((7-cyano-4-(cyclopropylamino)imidazo[2,1-f][1,2,4]triazin-2-yl)amino)phenyl)piperidine-1-carboxylate] has an IC50 of 0.48 nM.

For CC(C)(O)C(=O)N1CCC(c2cc(C#N)cc(Nc3nc(NC4CC4)c4ncc(C#N)n4n3)c2Cl)CC1 [Example 231, 2-((2-chloro-5-cyano-3-(1-(2-hydroxy-2-methylpropanoyl)-4-piperidinyl)phenyl)amino)-4-(cyclopropylamino)imidazo[2,1-f][1,2,4]triazine-7-carbonitrile], the IC50 was 0.45 nM.

For COC(=O)N[C@H]1CCN(c2cc(C#N)cc(Nc3nc(NC4CC4)c4ncc(C#N)n4n3)c2Cl)C[C@H]1N(C)CC#N [Example 766, methyl N-[(3R,4S)-1-(2-chloro-5-cyano-3-{[7-cyano-4-(cyclopropylamino)imidazo [2,1-f][1,2,4]triazin-2-yl]amino}phenyl)-3-[(cyanomethyl)(methyl)amino]piperidin-4-yl]carbamate], the IC50 was 6 nM.

With CC1(C(=O)N2CC(N3CCN(c4cc(C#N)cc(Nc5nc(NC6CC6)c6ncc(C#N)n6n5)c4Cl)CC3)C2)COC1 [Example 515, 2-[(2-chloro-5-cyano-3-{4-[1-(3-methyloxetane-3-carbonyl)azetidin-3-yl]piperazin-1-yl}phenyl)amino]-4-(cyclopropylamino)imidazo[2,1-f][1,2,4]triazine-7-carbonitrile] the IC50 was 4.84 nM.

With COC1CN(CCCc2cc(Cl)c(Nc3nc(NC4CC4)c4ncc(C#N)n4n3)cc2C#N)C1 [Example 570, 2-((2-chloro-5-cyano-4-(3-(3-methoxyazetidin-1-yl)propyl)phenyl)amino)-4-(cyclopropylamino)imidazo[2,1-f][1,2,4]triazine-7-carbonitrile] the IC50 was 1.91 nM.

In the case of COCCN1CCN(Cc2cc(C#N)cc(Nc3nc(NC4CC4)c4ncc(C#N)n4n3)c2Cl)CC1 [Example 476, 2-[(2-chloro-5-cyano-3-{[4-(2-methoxyethyl)piperazin-1-yl]methyl}phenyl)amino]-4-(cyclopropylamino)imidazo[2,1-f][1,2,4]triazine-7-carbonitrile], the IC50 is reported as 2.98 nM.

In the case of CC(=O)N1CCOC(c2cc(C#N)cc(Nc3nc(NC4CC4)c4ncc(C#N)n4n3)c2Cl)C1 (racemic) [Example 695, (+/−)-2-((3-(4-acetylmorpholin-2-yl)-2-chloro-5-cyanophenyl)amino)-4-(cyclopropylamino)imidazo[2,1-f][1,2,4]triazine-7-carbonitrile], the IC50 is reported as 3.7 nM.

Work on CC(C)(O)CNC1CCN(c2cc(C#N)cc(Nc3nc(NC4CC4)c4ncc(C#N)n4n3)c2Cl)CC1 [Example 143, 2-((2-chloro-5-cyano-3-(4-((2-hydroxy-2-methylpropyl)amino)-1-piperidinyl)phenyl)amino)-4-(cyclopropylamino)imidazo [2,1-f][1,2,4]triazine-7-carbonitrile] yielded an IC50 of 0.78 nM.

For CCNc1nc(Nc2cc(C#N)cc(N3CC[C@@H](NC(=O)OCCOCCOCCOCCOCCOCCOC)[C@H](O)C3)c2Cl)nn2c(C#N)cnc12 [Example 376, 2,5,8,11,14,17-hexaoxanonadecan-19-yl((3R,4R)-1-(2-chloro-5-cyano-3-((7-cyano-4-(ethylamino)imidazo[2,1-f][1,2,4]triazin-2-yl)amino)phenyl)-3-hydroxypiperidin-4-yl)carbamate], the IC50 was 0.83 nM.

With N#Cc1cc(Nc2nc(NC3CC3)c3ncc(C#N)n3n2)c(Cl)c(N2CCC3CCN(C4COC4)C3C2)c1 (racemic) [Example 457, (+/−)-2-((2-chloro-5-cyano-3-(1-(oxetan-3-yl)hexahydro-1H-pyrrolo[2,3-c]pyridin-6(2H)-yl)phenyl)amino)-4-(cyclopropylamino)imidazo[2,1-f][1,2,4]triazine-7-carbonitrile] the IC50 was 4.9 nM.

With C[C@H](O)CC(=O)N1CC(N2CCN(c3cc(C#N)cc(Nc4nc(NC5CC5)c5ncc(C#N)n5n4)c3Cl)CC2)C1 [Example 514, 2-{[2-chloro-5-cyano-3-(4-{1-[(3S)-3-hydroxybutanoyl]azetidin-3-yl}piperazin-1-yl)phenyl]amino}-4-(cyclopropylamino)imidazo[2,1-f][1,2,4]triazine-7-carbonitrile] the IC50 was 3.9 nM.

N#Cc1cc(Nc2nc(NC3CC3)c3ncc(C#N)n3n2)c(Cl)c(N2CCN3C[C@H](O)C[C@H]3C2)c1 (racemic) [Example 434, (+/−)-2-((2-chloro-5-cyano-3-((7R,8aS)-7-hydroxyhexahydropyrrolo[1,2-a]pyrazin-2(1H)-yl)phenyl)amino)-4-(cyclopropylamino)imidazo[2,1-f][1,2,4]triazine-7-carbonitrile] showed an IC50 of 0.61 nM.

Work on CCNc1nc(Nc2cc(C#N)cc(N3CCOC(C(C)(C)O)C3)c2Cl)nn2c(C#N)cnc12 (racemic) [Example 361, (+/−) 2-((2-chloro-5-cyano-3-(2-(1-hydroxy-1-methylethyl)-4-morpholinyl)phenyl)amino)-4-(ethylamino)imidazo[2,1-f][1,2,4]triazine-7-carbonitrile] yielded an IC50 of 0.85 nM.

For N#CCCN(Cc1cc(C#N)cc(Nc2nc(NC3CC3)c3ncc(C#N)n3n2)c1Cl)CC1CCCO1 (centres unmarked) [Example 474, 2-[(2-chloro-5-cyano-3-{[(2-cyanoethyl)(oxolan-2-ylmethyl)amino]methyl}phenyl)amino]-4-(cyclopropylamino)imidazo[2,1-f][1,2,4]triazine-7-carbonitrile], the IC50 was 1.55 nM.

N#Cc1cc(Nc2nc(NC3CC3)c3ncc(C#N)n3n2)c(Cl)c(N2CCN(C3CCCC3F)CC2)c1 (centres unmarked) [Example 587, 2-({2-chloro-5-cyano-3-[4-(2-fluorocyclopentyl)piperazin-1-yl]phenyl}amino)-4-(cyclopropylamino)imidazo [2,1-f][1,2,4]triazine-7-carbonitrile] was tested, and the IC50 was 8.02 nM.

In the case of CCNc1nc(Nc2cc(C#N)cc(N3CCN([C@H]4C[C@H](O)C4)CC3)c2Cl)nn2c(C#N)cnc12 [Example 613, 2-[(2-chloro-5-cyano-3-{4-[(1r,3r)-3-hydroxycyclobutyl]piperazin-1-yl}phenyl)amino]-4-(ethylamino)imidazo [2,1-f][1,2,4]triazine-7-carbonitrile], the IC50 is reported as 1.62 nM.

For CCNc1nc(Nc2cc(C#N)cc(N[C@@H]3CCN(C(=O)OC)C[C@H]3O)c2Cl)nn2c(C#N)cnc12 [Example 846, (3R,4R)-methyl 4-((2-chloro-5-cyano-3-((7-cyano-4-(ethylamino)imidazo[2,1-f][1,2,4]triazin-2-yl)amino)phenyl)amino)-3-hydroxypiperidine-1-carboxylate], the IC50 was 17.3 nM.

Work on CC1(C)CN2CCN(c3cc(C#N)cc(Nc4nc(NC5CC5)c5ncc(C#N)n5n4)c3Cl)C[C@H]2CO1 [Example 303, (S)-2-((2-chloro-5-cyano-3-(3,3-dimethylhexahydropyrazino[2,1-c][1,4]oxazin-8(1H)-yl)phenyl)amino)-4-(cyclopropylamino)imidazo[2,1-f][1,2,4]triazine-7-carbonitrile, HCl] yielded an IC50 of 0.69 nM.
